Test results as given in patent US9284292B2, “Sialochimeric compounds” (THERAPICON S.R.L., priority 2009, dated 2016).
pEC50: −log10 of the molar value.

System: influenza virus A/H1N1(H275Y) (A/Parma/38/2008)
Type: cell-based, influenza virus type A

## CCOC(=O)C1=CC(OC(CC)CC)C(NC(C)=O)C(NC2(C(=O)O)CC(O)C(NC(C)=O)C(CNC34CC5CC(CC(C5)C3)C4)O2)C1 (centres unmarked) [THE 08/01, Amantadine-C7-Neu5Ac—C16H28N2O4]
  pEC50: 4.84
  antiviral activity in vitro versus influenza virus A/H1N1(H275Y): comparable to that determined versus A/H1N1
